Common to all, as to format: cell-based
The target of one assay is hGLP-1R (Homo sapiens, UniProt P43220). In words: Functional cAMP formation (HTRF) in HEK-293 clonal cells expressing hGLP-1R, 0.1% bovine casein, without or with 1.0% human serum albumin. Further details: expressed in transfected cells. Particulars: for EC50: cAMP, 0.1% bovine casein (no human serum albumin), geometric mean. Put shortly:
(§1)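 Readings of the HTRF 665/620 nm ratio, which falls as cAMP rises, were converted to nM cAMP using a standard curve after 30 min peptide exposure at 37° C.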

The next assay has as its target T1, hGCGR (Homo sapiens, UniProt P47871).
T1 construct: expressed in transfected cells
In words: Functional cAMP formation (HTRF) in HEK-293 clonal cells expressing hGCGR, 0.1% bovine casein, without or with 1.0% human serum albumin. The essentials:
as §1
On the technique in general: Cyclic AMP is a second messenger, typically raised through Gs and lowered through Gi signalling.

The next assay concerns the target T2, hGIPR (Homo sapiens, UniProt P48546).
T2 construct: expressed in transfected cells
T2 sequence (P48546 22-466): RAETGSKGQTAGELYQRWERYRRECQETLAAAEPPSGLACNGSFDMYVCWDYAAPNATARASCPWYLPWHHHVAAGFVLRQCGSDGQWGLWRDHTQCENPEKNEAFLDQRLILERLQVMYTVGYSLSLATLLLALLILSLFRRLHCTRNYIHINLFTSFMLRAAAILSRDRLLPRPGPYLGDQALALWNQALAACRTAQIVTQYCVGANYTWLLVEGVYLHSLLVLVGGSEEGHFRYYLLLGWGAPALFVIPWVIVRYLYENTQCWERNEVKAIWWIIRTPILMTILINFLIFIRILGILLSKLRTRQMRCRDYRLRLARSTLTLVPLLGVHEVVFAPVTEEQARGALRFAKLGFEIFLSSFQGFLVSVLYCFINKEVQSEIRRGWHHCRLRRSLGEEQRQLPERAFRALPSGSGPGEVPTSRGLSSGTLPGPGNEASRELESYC
In words: Functional cAMP formation (HTRF) in HEK-293 clonal cells expressing hGIPR, 0.1% bovine casein, without or with 1.0% human serum albumin. The following applies: for EC50: geometric mean. Put shortly:
as §1

The mark [1] stands for this setting: hGCGR EC50, nM (SEM, n), 0.1% bovine casein and 1.0% human serum albumin, 37° C., geometric mean.
[2] abbreviates: HEK293, read-out: hGIPR Emax, % ± SEM, 0.1% bovine casein and 1.0% human serum albumin, 37° C., percent of maximal response to GIP(1-42)NH2.
[3] abbreviates: 37° C., read-out: hGLP-1R EC50, nM (SEM, n).
[4] abbreviates: cAMP, 37° C., 0.1% bovine casein (no human serum albumin), geometric mean, read-out: hGCGR EC50, nM (SEM, n).
The mark [5] stands for this setting: cAMP, 37° C., 0.1% bovine casein (no human serum albumin), read-out: hGIPR EC50, nM (SEM, n).

Like-named read-outs stand apart in the source and are kept apart here. *1 amine or outer side, *2 acyl side, *3 side chain or, on linkers, in order; H or OH if unused. Where a SMILES comes first, the peptide text is derived from it. Side-chain parts run from the residue outwards. [ ]: non-standard residue; d: D form. The star is where a group is joined. Undecanoyl(11-OPh(4-COOH)) = O=C(O)c1ccc(OCCCCCCCCCCC(=O)*)cc1; αMePhe(2-F) = C[C@](N)(Cc1ccccc1F)C(=O)O; γGlu = O=C(O)[C@H](CCC(=O)[*:2])N[*:1]; αMeY = C[C@](N)(Cc1ccc(O)cc1)C(=O)O; 4Pal = N[C@@H](Cc1ccncc1)C(=O)O; αMeL = CC(C)C[C@](C)(N)C(=O)O; Orn = NCCC[C@H](N)C(=O)O; AEEA = NCCOCCOCC(=O)O; Aib = CC(C)(N)C(=O)O

T1 sequence (P47871 26-477): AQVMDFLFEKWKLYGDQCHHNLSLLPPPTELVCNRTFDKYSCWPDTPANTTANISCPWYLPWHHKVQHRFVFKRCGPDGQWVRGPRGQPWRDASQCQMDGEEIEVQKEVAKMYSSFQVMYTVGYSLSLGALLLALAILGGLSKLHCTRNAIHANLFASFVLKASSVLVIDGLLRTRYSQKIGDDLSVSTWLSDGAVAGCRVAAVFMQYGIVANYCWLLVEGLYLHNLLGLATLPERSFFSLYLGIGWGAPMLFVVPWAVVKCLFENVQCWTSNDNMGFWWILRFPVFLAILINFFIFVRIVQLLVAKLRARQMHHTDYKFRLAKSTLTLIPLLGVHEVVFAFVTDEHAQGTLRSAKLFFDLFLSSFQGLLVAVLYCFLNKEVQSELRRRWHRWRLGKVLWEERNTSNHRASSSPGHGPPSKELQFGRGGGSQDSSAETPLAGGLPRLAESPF
Sequence of hGLP-1R (P43220 24-463): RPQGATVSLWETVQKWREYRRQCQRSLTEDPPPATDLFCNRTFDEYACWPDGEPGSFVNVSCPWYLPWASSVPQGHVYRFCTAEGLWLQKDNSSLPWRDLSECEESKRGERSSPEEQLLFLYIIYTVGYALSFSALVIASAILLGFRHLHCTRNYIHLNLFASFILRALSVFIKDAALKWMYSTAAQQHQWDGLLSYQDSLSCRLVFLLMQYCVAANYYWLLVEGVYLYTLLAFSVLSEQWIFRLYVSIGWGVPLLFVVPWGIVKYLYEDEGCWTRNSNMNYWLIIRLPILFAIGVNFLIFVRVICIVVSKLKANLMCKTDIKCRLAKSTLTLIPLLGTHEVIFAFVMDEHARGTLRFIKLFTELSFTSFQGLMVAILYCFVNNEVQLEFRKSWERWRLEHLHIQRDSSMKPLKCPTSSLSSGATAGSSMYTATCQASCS

Take `CC[C@H](C)[C@H](NC(=O)[C@H](CC(C)C)NC(=O)[C@](C)(Cc1ccc(O)cc1)NC(=O)[C@@H](CCC(=O)O)NC(=O)[C@@H](NC(=O)[C@H](Cc1ccccc1)NC(=O)[C@H](CCC(=O)O)NC(=O)C(C)(C)NC(=O)[C@H](CCC(N)=O)NC(=O)[C@H](C)NC(=O)[C@H](CCCCNC(=O)COCCOCCNC(=O)COCCOCCNC(=O)CC[C@H](NC(=O)CCCCCCCCCCOc1ccc(C(=O)O)cc1)C(=O)O)NC(=O)[C@H](CCCN)NC(=O)[C@H](CC(=O)O)NC(=O)[C@H](CC(C)C)NC(=O)[C@](C)(CC(C)C)NC(=O)[C@@H](NC(=O)[C@H](CO)NC(=O)[C@H](Cc1ccncc1)NC(=O)[C@H](CC(=O)O)NC(=O)[C@H](CO)NC(=O)[C@@H](NC(=O)[C@](C)(Cc1ccccc1F)NC(=O)[C@@H](NC(=O)CNC(=O)[C@H](CCC(=O)O)NC(=O)C(C)(C)NC(=O)[C@@H](N)Cc1ccc(O)cc1)[C@@H](C)O)[C@@H](C)O)[C@@H](C)CC)[C@@H](C)CC)C(=O)N[C@@H](CCC(=O)O)C(=O)NCC(=O)NCC(=O)N1CCC[C@H]1C(=O)N[C@@H](CO)C(=O)N[C@@H](CO)C(=O)NCC(=O)N[C@@H](C)C(=O)N1CCC[C@H]1C(=O)N1CCC[C@H]1C(=O)N1CCC[C@H]1C(=O)N[C@@H](CO)C(=O)N[C@@H](CCCCNC(=O)COCCOCCNC(=O)COCCOCCNC(=O)CC[C@H](NC(=O)CCCCCCCCCCOc1ccc(C(=O)O)cc1)C(=O)O)C(N)=O` [Example 285]: the Emax (commonly the size of the effect at its maximum, as opposed to the concentration needed) is 105% at hGLP-1R (HEK293, read-out: hGLP-1R Emax, % ± SEM, 0.1% bovine casein and 1.0% human serum albumin, 37° C., percent of maximal response to GLP-1(7-36)NH2); 84.7% on hGIPR (setting [2]). The EC50 (in general, the concentration giving half of the maximal effect) is 1.21 nM at hGLP-1R (hGLP-1R EC50, nM (SEM, n), 37° C.); greater than 9950 nM at hGCGR (setting [1]); greater than 9950 nM at hGCGR (hGCGR EC50, nM (SEM, n), cAMP, 37° C., 0.1% bovine casein (no human serum albumin), geometric mean); 1.28 nM on hGIPR (hGIPR EC50, nM (SEM, n), 0.1% bovine casein and 1.0% human serum albumin, 37° C.); 0.0115 nM at hGIPR (hGIPR EC50, nM (SEM, n), cAMP, 37° C., 0.1% bovine casein (no human serum albumin)).
As to `CC[C@H](C)[C@H](NC(=O)[C@H](CC(C)C)NC(=O)[C@](C)(Cc1ccc(O)cc1)NC(=O)[C@@H](CCC(=O)O)NC(=O)[C@@H](NC(=O)[C@H](Cc1ccccc1)NC(=O)[C@H](CCC(=O)O)NC(=O)C(C)(C)NC(=O)[C@H](CCC(N)=O)NC(=O)[C@H](C)NC(=O)[C@H](CCCCNC(=O)COCCOCCNC(=O)CC[C@H](NC(=O)CCCCCCCCCCCCC(=O)O)C(=O)O)NC(=O)[C@H](CCCN)NC(=O)[C@H](CC(=O)O)NC(=O)[C@H](CC(C)C)NC(=O)[C@](C)(CC(C)C)NC(=O)[C@@H](NC(=O)C(C)(C)NC(=O)[C@@H](NC(=O)[C@H](CC(=O)O)NC(=O)[C@H](CO)NC(=O)[C@@H](NC(=O)[C@](C)(Cc1ccccc1F)NC(=O)[C@@H](NC(=O)CNC(=O)[C@H](CCC(=O)O)NC(=O)C(C)(C)NC(=O)[C@@H](N)Cc1ccc(O)cc1)[C@@H](C)O)[C@@H](C)O)C(C)C)[C@@H](C)CC)[C@@H](C)CC)C(=O)N[C@@H](CCCCNC(=O)COCCOCCNC(=O)CC[C@H](NC(=O)CCCCCCCCCCCCC(=O)O)C(=O)O)C(=O)NCC(=O)NCC(=O)N1CCC[C@H]1C(=O)N[C@@H](CO)C(=O)N[C@@H](CO)C(=O)NCC(=O)N[C@@H](C)C(=O)N1CCC[C@H]1C(=O)N1CCC[C@H]1C(=O)N1CCC[C@H]1C(=O)N[C@@H](CO)C(N)=O` [Example 399], the Emax is 89.7% at hGLP-1R (HEK293, cAMP, 37° C., 0.1% bovine casein and 1.0% human serum albumin, percent of maximal response to GLP-1(7-36)NH2, read-out: hGLP-1R Emax, % ± SEM); 91.9% on hGLP-1R (HEK293, cAMP, 37° C., 0.1% bovine casein, percent of maximal response to GLP-1(7-36)NH2, arithmetic mean, read-out: hGLP-1R Emax, % ± SEM); 86.8% on hGIPR (HEK293, cAMP, 37° C., 0.1% bovine casein and 1.0% human serum albumin, percent of maximal response to GIP(1-42)NH2, read-out: hGIPR Emax, % ± SEM). Also, the EC50 is 0.259 nM on hGLP-1R (setting [3]); greater than 9950 nM on hGCGR (setting [4]); greater than 9950 nM on hGCGR (cAMP, 37° C., 0.1% bovine casein and 1.0% human serum albumin, geometric mean (SEM, n), read-out: hGCGR EC50, nM (SEM, n)); 0.0186 nM at hGIPR (setting [5]).
As for `CC[C@H](C)[C@H](NC(=O)[C@H](CC(C)C)NC(=O)[C@](C)(Cc1ccc(O)cc1)NC(=O)[C@@H](CCC(=O)O)NC(=O)[C@@H](NC(=O)[C@H](Cc1ccccc1)NC(=O)[C@H](CCCCNC(=O)COCCOCCNC(=O)COCCOCCNC(=O)CCCCCCCCCCCCC(=O)O)NC(=O)C(C)(C)NC(=O)[C@H](CCC(N)=O)NC(=O)[C@H](C)NC(=O)[C@H](CCCCNC(=O)COCCOCCNC(=O)COCCOCCNC(=O)CCCCCCCCCCCCC(=O)O)NC(=O)[C@H](CCCN)NC(=O)[C@H](CC(=O)O)NC(=O)[C@H](CC(C)C)NC(=O)[C@](C)(CC(C)C)NC(=O)[C@@H](NC(=O)[C@H](CO)NC(=O)[C@H](CCc1ccc(O)cc1)NC(=O)[C@H](CC(=O)O)NC(=O)[C@H](CO)NC(=O)[C@@H](NC(=O)[C@](C)(Cc1ccccc1F)NC(=O)[C@@H](NC(=O)CNC(=O)[C@H](CCC(=O)O)NC(=O)C(C)(C)NC(=O)[C@@H](N)Cc1ccc(O)cc1)[C@@H](C)O)[C@@H](C)O)[C@@H](C)CC)[C@@H](C)CC)C(=O)N[C@@H](CCC(=O)O)C(=O)NCC(=O)NCC(=O)N1CCC[C@H]1C(=O)N[C@@H](CO)C(=O)N[C@@H](CO)C(=O)NCC(=O)N[C@@H](C)C(=O)N1CCC[C@H]1C(=O)N1CCC[C@H]1C(=O)N1CCC[C@H]1C(=O)N[C@@H](CO)C(N)=O` [Example 272], the EC50 on hGLP-1R (setting [3]) is 0.388 nM; on hGCGR (0.1% bovine casein and 1.0% human serum albumin, 37° C., geometric mean, read-out: hGCGR EC50, nM (SEM, n)), greater than 9950 nM; on hGCGR (setting [4]), greater than 9950 nM; at hGIPR (setting [5]), 0.0264 nM. For the same compound, the Emax at hGIPR (HEK293, 0.1% bovine casein and 1.0% human serum albumin, 37° C., percent of maximal response to GIP(1-42)NH2, read-out: hGIPR Emax, % ± SEM) was determined as 81.2%; on hGIPR (HEK293, cAMP, 37° C., 0.1% bovine casein, percent of maximal response to GIP(1-42)NH2, arithmetic mean, read-out: hGIPR Emax, % ± SEM), 86%.
For `CC[C@H](C)[C@H](NC(=O)[C@H](CCCN)NC(=O)[C@H](CC(=O)O)NC(=O)[C@H](CC(C)C)NC(=O)[C@](C)(CC(C)C)NC(=O)[C@@H](NC(=O)C(C)(C)NC(=O)[C@H](Cc1ccncc1)NC(=O)[C@H](CC(=O)O)NC(=O)[C@H](CO)NC(=O)[C@@H](NC(=O)[C@](C)(Cc1ccccc1F)NC(=O)[C@@H](NC(=O)CNC(=O)[C@H](CCC(=O)O)NC(=O)C(C)(C)NC(=O)[C@@H](N)Cc1ccc(O)cc1)[C@@H](C)O)[C@@H](C)O)[C@@H](C)CC)C(=O)N[C@@H](C)C(=O)N[C@@H](CCC(N)=O)C(=O)NC(C)(C)C(=O)N[C@@H](CCCCNC(=O)COCCOCCNC(=O)COCCOCCNC(=O)CC[C@H](NC(=O)CCCCCCCCCCOc1ccc(C(=O)O)cc1)C(=O)O)C(=O)N[C@@H](Cc1ccccc1)C(=O)N[C@H](C(=O)N[C@H](CCC(=O)O)C(=O)N[C@@](C)(Cc1ccc(O)cc1)C(=O)N[C@@H](CC(C)C)C(=O)N[C@H](C(=O)N[C@@H](CCC(=O)O)C(=O)NCC(=O)NCC(=O)N1CCC[C@H]1C(=O)N[C@@H](CO)C(=O)N[C@@H](CO)C(=O)NCC(=O)N[C@@H](C)C(=O)N1CCC[C@H]1C(=O)N1CCC[C@H]1C(=O)N1CCC[C@H]1C(=O)N[C@@H](CO)C(=O)N[C@@H](CCCCNC(=O)COCCOCCNC(=O)COCCOCCNC(=O)CC[C@H](NC(=O)CCCCCCCCCCOc1ccc(C(=O)O)cc1)C(=O)O)C(N)=O)[C@@H](C)CC)[C@@H](C)CC` [Example 242] (H-Y[Aib]EGT[αMePhe(2-F)]TSD[4Pal][Aib]I[αMeL]LD[Orn]IAQ[Aib]K([AEEA-AEEA-γGlu-Undecanoyl(11-OPh(4-COOH))])FI[dE][αMeY]LIEGGPSSGAPPPSK([AEEA-AEEA-γGlu-Undecanoyl(11-OPh(4-COOH))])-NH2), the Emax at hGLP-1R (HEK293, read-out: hGLP-1R Emax, % ± SEM, percent of maximal response to GLP-1(7-36)NH2, 37° C., 0.1% bovine casein, arithmetic mean) worked out at 96.3%; at hGIPR (setting [2]) it was 83.9%; at hGIPR (HEK293, read-out: hGIPR Emax, % ± SEM, percent of maximal response to GIP(1-42)NH2, 37° C., 0.1% bovine casein, arithmetic mean), 100%. Further, the EC50 is 0.584 nM on hGLP-1R (hGLP-1R EC50, nM (SEM, n), incubated at 37° C.); greater than 9950 nM at hGCGR (setting [1]); greater than 9950 nM at hGCGR (hGCGR EC50, nM (SEM, n), cAMP, incubated at 37° C., 0.1% bovine casein (no human serum albumin), geometric mean); 0.0197 nM at hGIPR (hGIPR EC50, nM (SEM, n), cAMP, incubated at 37° C., 0.1% bovine casein (no human serum albumin)).

The record behind these values is US20230265151A1, “GIP/GLP1 CO-AGONIST COMPOUNDS” (priority 2020, published 2023).
